In one test the test system is HBV. The settings on record: after two years of treatment; cited from earlier work.
For test [1], the system named is HepaRG cells infected with HBV/HDV containing serum. The experiment in a line: Number of HBcAg-positive HepaRG cells on day 6 post infection by HBcAg-specific IF, Myrcludex B with or without entecavir. It counts as cell-based. The settings on record: immunochemistry.

With `C[C@H](Cn1cnc2c(N)ncnc21)OCP(=O)(O)O` [tenofovir], the HBsAg seroconversion in the test with HBV was 4 % of patients.

On to `C=C1[C@H](CO)[C@@H](O)C[C@@H]1n1cnc2c(=O)[nH]c(N)nc21` [entecavir], for which, in test [1], the “effect of entecavir on the inhibition of HBV receptor by Myrcludex B in vitro” value is reported as “did not improve”.

The values are drawn from patent publication US20180228804A1, “COMBINATION THERAPY OF HBV AND HDV INFECTION” (MYR GMBH, priority 2014, published 2018).
